The values below come from US20240277767A1, “METHODS AND USES” (PROLEUKOCYTE AB, priority 2021, published 2024).

Holding throughout (format): cell-based, human
Assay [1] concerns NK cells. As to the kind of experiment: [Cr51]-release assay: lysis of tumour target cells by pre-treated NK cells after H2O2 exposure. The note with it: for Lysis of K562 target cells by pre-treated NK cells after H2O2 exposure: 18 h pre-treatment, H2O2 1 h up to 250 μM, E:T 9:1, vs control NK cells; for Suppressive effect of H2O2 on lymphocyte function (killing, degranulation, IFNγ): expanded NK cells and patient derived TIL, pre-treatment; for Dependence of the protective effect on Nrf2 activation: qPCR of Nrf2 target genes and K562 lysis with/without Nrf2 inhibitor ML385. The source says: Peripheral blood samples (anonymized by-products of blood donations from healthy adult donors) were purchased from Karolinska University Hospital Blood Bank. Peripheral blood mononuclear cells (PBMC) were isolated from healthy donor buffy coats using density centrifugation with Ficoll® Paque Plus (GE Healthcare). NK cells and CD14^+ monocytes were isolated from PBMCs using NK cell isolation kit or CD14^+ microbeads, respectively (both Miltenyi Biotec), following the manufacturer's instructions. For NK cell expansion, a EBV-LCL feeder cell line was used, irradiated at 100 gy and then co-cultured with NK cells, at the ratio 10:1 LCL:NK, in X-Vivo 20 (Lonza) supplemented with 10% human AB serum and 1000 U/mL IL-2 (Proleukin). From day 6 or 10, NK cells were kept at 0.5×10^6 cells/mL or 1×10^6/mL, respectively. Purity of expanded NK cell was assessed at day 10 by flow cytometry, see below.
Lymphocytes were pre-treated for 18 h with Auranofin (AUF, with the concentration 1 μg/mL for NK cells and 0.5 μg/mL for TIL, if not indicated differently), DL-Sulforaphane (SUL) or Dimethyl Fumarate (DMF) (all Sigma-Aldrich) at indicated concentrations.
(§1) For Nrf2 inhibition, NK cells were treated with 50 μM ML-385 (Sigma-Aldrich) in parallel. For H2O2 treatment, lymphocyte cells were washed and resuspended to 1×10^6 cells/mL in medium and exposed to indicated H2O2 (Sigma-Aldrich) concentration for 1 h at 37° C. Cells were washed with medium and then used for further experiments. For monocyte experiments, autologous NK cell-monocytes or TIL-monocytes were used. NK cells/TIL were isolated and pre-treated with 0.5 μg/mL AUF, as described above, and co-cultured with unstimulated at the ratio, 1:2 M:NK, or stimulated monocytes at the ratio, 1:1 M:NK, if not indicated otherwise. Stimulated monocytes were activated with 100 ng/ml PMA for 1 min, washed and added at indicated ratio, the number of NK cell/TIL was kept constant. As control, H2O2 was used at indicated concentration. Cells were co-cultured for 2 h and then effector cells were stained for intracellular ROS (see flow cytometry) or used as effector cells in Cr^51 release assay (E:T ratio 10:1).
(§2) For cytotoxic assay, a standard 4 h [Cr^51]-release assay was used. Briefly, tumour cells were harvested and labeled with 51Cr (PerkinElmer) and used as target cells. Effector cells, NK cells and T cells, were co-cultured in 96-well V-bottom plate with indicated tumour cells at the stated effector target ratio (E:T). The supernatant was collected onto LUMA plates (Perkin-Elmer) and radioactivity/tumour cell lysis was detected by MicroBeta2 (Perkin Elmer). Target cell killing measured by % specific lysis and calculated using the formula: ((experimental release-spontaneous release)/(maximum release-spontaneous release))*100.
Lymphocytes were pre-treated for 18 h with Auranofin (AUF, with the concentration 1 μg/mL for NK cells and 0.5 μg/mL for TIL. As AUF was reconstituted in DMSO, control NK cells were pre-treated with DMSO with an equivalent volume to the highest compound concentration. For N-acetylcysteine (NAC, Invitrogen) treatment, DMSO pre-treated cells were incubated for 1 h with 5 or 10 mM NAC prior to H2O2 treatment. For H2O2 treatment, lymphocytes were washed and resuspended to 1×10^6 cells/mL in RPMI containing the indicated H2O2 (Sigma-Aldrich) concentration for 1 h at 37° C. 5% CO2. Cells were washed with medium and then used for further experiments.
On the technique in general: Real-time PCR tracks product formation cycle by cycle.

Assay [2] deals with tumour infiltrating lymphocytes (TIL). As to the kind of experiment: IFNγ release by pre-treated TIL on autologous tumour cells after H2O2 treatment. The note with it: KADA and ANRU melanoma TIL, E:T 4:1, vs control group. As to the method:
., 2020). […] For Nrf2 inhibition, NK cells were treated with 50 μM ML-385 (Sigma-Aldrich) in parallel. […] Cells were washed with medium and then used for further experiments. For monocyte experiments, autologous NK cell-monocytes or TIL-monocytes were used. […] Stimulated monocytes were activated with 100 ng/ml PMA for 1 min, washed and added at indicated ratio, the number of NK cell/TIL was kept constant. […] For cytokine release assay, NK cells and TIL were cultured with indicated tumour cells at the effector target ratio 4:1 (E:T) for 24 h in U-bottom plates. IFNγ secretion was measured using human IFN-γ ELISA development kit (Mabtech) following the manufacturer's instructions.

For assay [3], the system named is Nrf2 target genes (NQO1, HMOX1, TXNRD1, Keap1). As to the kind of experiment: qPCR of classical Nrf2 target genes in NK cells. Conditions: kinetic, fold change vs untreated. As to the method:
Lymphocytes were pre-treated with AUF, SUL or DMF as described above. RNA was isolated using TRIzol™ Plus RNA Purification Kit (Invitrogen). cDNA was generated using the iScript™ cDNA Synthesis Kit (Bio-Rad) and qPCR was done using iTaq™ Universal SYBR® Green Supermix (Bio-Rad) in the CFX96 Touch Real-Time PCR Detection System (Bio-Rad). Fold change expression from untreated cells was calculated using the 2^-ΔΔCt formula with b-actin as reference gene. Evaluated genes were NAD(P)H Quinone Dehydrogenase 1 (NQO1), Kelch Like ECH Associated Protein 1 (Keap1), Heme Oxygenase 1 (HMOX1) and Thioredoxin Reductase 1 (TXNRD1).

For assay [4], the system named is NK cells. As to the kind of experiment: ADCC: NK cells with RAJI cells coated with Rituximab or Ofatumumab. The note with it: Rituximab 0.5 μg/mL or Ofatumumab 0.05 μg/mL, E:T 9:1. As for the experimental part: Lymphocytes were isolated and pre-treated when indicated, with compound and H2O2, as described above. For degranulation/measuring CD107a expression, NK cells were co-cultured with K562 tumour cells at an effector target ratio 1:1 in the presence of anti-CD107a in U-bottom plates. After 2 h, GolgiStop™ and GolgiPlug™ (BD Bioscience) were added and cells were harvested after an additional 4 h co-culture and stained for CD56 and CD3, as described above. For positive control, 25 ng/ml PMA (Sigma Aldrich) and 500 ng/mL Ionomycin (Sigma Aldrich) were added.
as §2
For analyzing ADCC, NK cells were cultured with RAJI cells and Rituximab (0.5 μg/mL, MabThera, Roche) or Ofatumumab (0.05 μg/mL, Arzerra, Novartis).

The test system of assay [5] is NK cells. As to the kind of experiment: NK cells co-cultured with PMA-activated autologous monocytes: intracellular ROS and K562 lysis. The note with it: 100 U/mL catalase; intracellular ROS and K562 lysis. As to the method: as §1
Monocytes were stimulated with 100 ng/ml PMA for 1 min and washed with HBSS (Gibco). Cells were resuspended in HBSS 5% FBS and added to a 96-well Optiplate (Perkin Elmer) containing HBSS 5% FBS and Luminol (56 μM; Sigma). Luminescence was measured immediately using a EnSpire plate reader (Perkin Elmer).
For detection of intracellular ROS levels, for NK cells CellROX™ Deep Red Reagent (Invitrogen) were used. Briefly, NK cells were stained with 2.5 μM CellROX solution in RPMI for 30 min at 37° C. and then stained for flow cytometry with anti-CD56 and anti-CD3 (both Biolegend).
as §2

In the case of `C[S+]([O-])CCCCN=C=S` (racemic) [SUL, 1-Isothiocyanato-4-(methanesulfinyl)butane], in the assay with NK cells [1], the “Lysis of K562 target cells by pre-treated NK cells after H2O2 exposure” value is on record as “comparable protective effects as AUF”; the “Suppressive effect of H2O2 on lymphocyte function (killing, degranulation, IFNγ)” value is recorded as “counteracts the suppressive effect of H2O2 on lymphocyte function”; the “Dependence of the protective effect on Nrf2 activation” value is “dependent on Nrf2 activation”. Moreover, the “Recognition of autologous tumour cells by TIL (IFNγ production) upon exposure to H2O2” value in assay [2] was “increased recognition of their autologous tumour cells”. The “Influence on Nrf2 target genes in NK cells compared with AUF” value in assay [3] was “comparable influence”.

On to `COC(=O)/C=C/C(=O)OC` [DMF, Dimethyl (E)-butenedioate], for which, in the assay with NK cells [1], the “Lysis of K562 target cells by pre-treated NK cells after H2O2 exposure” value is “comparable protective effects as AUF”; the “Suppressive effect of H2O2 on lymphocyte function (killing, degranulation, IFNγ)” value is recorded as “counteracts the suppressive effect of H2O2 on lymphocyte function”; the “Dependence of the protective effect on Nrf2 activation” value is “dependent on Nrf2 activation”. In addition, the “Recognition of autologous tumour cells by TIL (IFNγ production) upon exposure to H2O2” value in assay [2] is “increased recognition of their autologous tumour cells”. In addition, the “Influence on Nrf2 target genes in NK cells compared with AUF” value in assay [3] is reported as “comparable influence”.

With `Cc1ccccc1C(=O)N1CCc2cc(-c3nc(NC(=O)Cc4ccc5c(c4)OCO5)sc3C)ccc21` [ML385], in the assay with NK cells [1] (50 μM ML385), the “Effect of ML385 on K562 lysis by DMSO pre-treated control NK cells” value is “no effects”. For the same molecule, the “Lysis of K562 by NK cells pre-treated with AUF, SUL or DMF in combination with ML385” value with NK cells [1] (50 μM ML385, cells exposed to H2O2) was “significantly reduced”.

On to `CC(=O)N[C@@H](CS)C(=O)O` [NAC, N-acetylcysteine], for which, in the assay with NK cells [1] (1 h, 5 or 10 mM NAC, increased H2O2 concentrations), the “Protection of K562 lysis by control NK cells pre-treated with NAC, compared to AUF” value is “less protection”.

As for “Ofatumumab: antibody therapy targeting CD20”, the “Recognition of antibody-coated RAJI cells by NK cells (killing and CD107a degranulation)” value with NK cells [4] is “efficient recognition of the target cells”.

Turning to “Rituximab: antibody therapy targeting CD20”, the “Recognition of antibody-coated RAJI cells by NK cells (killing and CD107a degranulation)” value with NK cells [4] was “efficient recognition of the target cells”.

B1: catalase: an enzyme efficiently converting H2O2 to H2O and O2 (protein, UniProt P04040 2-527, looked up)
Catalase: ADSRDPASDQMQHWKEQRAAQKADVLTTGAGNPVGDKLNVITVGPRGPLLVQDVVFTDEMAHFDRERIPERVVHAKGAGAFGYFEVTHDITKYSKAKVFEHIGKKTPIAVRFSTVAGESGSADTVRDPRGFAVKFYTEDGNWDLVGNNTPIFFIRDPILFPSFIHSQKRNPQTHLKDPDMVWDFWSLRPESLHQVSFLFSDRGIPDGHRHMNGYGSHTFKLVNANGEAVYCKFHYKTDQGIKNLSVEDAARLSQEDPDYGIRDLFNAIATGKYPSWTFYIQVMTFNQAETFPFNPFDLTKVWPHKDYPLIPVGKLVLNRNPVNYFAEVEQIAFDPSNMPPGIEASPDKMLQGRLFAYPDTHRHRLGPNYLHIPVNCPYRARVANYQRDGPMCMQDNQGGAPNYYPNSFGAPEQQPSALEHSIQYSGEVRRFNTANDDNVTQVRAFYVNVLNEEQRKRLCENIAGHLKDAQIFIQKKAVKNFTEVHPDYGSHIQALLDKYNAEKPKNAIHTFVQSGSHLAAREKANL
In the case of B1, the “Lysis of K562 target cells by control NK cells with catalase added before H2O2” value with NK cells [1] (catalase added to control NK cells before incubation with H2O2) is “improve the function of the control NK cells in a comparable way to AUF pre-treatment”. Further, the “Difference between activated monocytes or H2O2 treated control NK cells in the presence of catalase” value with NK cells [5] is reported as “no difference”.
